Laboratory results published in patent US20120282224A1, “MARKERS ASSOCIATED WITH RIBAVIRIN-INDUCED ANEMIA” (priority 2009, published 2012).
Each block holds one compound with its values, some of them ahead of it.

Assays:
[1] = human, in vivo, 4 weeks
Text: In order to identify genetic contributions to treatment response, the inventors carried out a genome-wide association study on genomic samples obtained from the IDEAL study, the design of which was reported in McHutchison et al., J. Viral Hepatol., Vol. 15, No. 7, July 2008, pp. 475-481). Briefly, in the IDEAL study, treatment-naive patients chronically infected with HCV genotype 1 were randomized (1:1:1) to receive one of the following 48-week treatment regimens: peginterferon alfa-2b (PEG2b) at 1.5 mcg/kg/week plus ribavirin (RBV); PEG2b at 1.0 mcg/kg/week plus RBV; or peginterferon alfa-2a (PEG2a) at 180 meg/week+RBV. In the PEG2b regimens, patients weighing 40-65 kg received 800 mg/day RBV; patients weighing more than 65 and up to 85 kg received 1000 mg/day RBV; patients weighing more than 85 and up to 105 kg received 1200 mg/day RBV; and patients weighing more than 105 kg received 1400 mg/day RBV). In the PEG2a regimen patients weighing <75 kg received 1000 mg/day of RBV while patients weighing ≧75 kg received 1200 mg/day of RBV. Hemoglobin values were measured at baseline (before the first dose of treatment), at week 2, 4, 8, 12, and then every 6 weeks up to treatment completion (48 weeks total). Follow-up measures were obtained at 4, 12 and 24 weeks post-treatment. […]

erythrocytes = erythrocytes versus plasma; cited from earlier work
[2] = taribavirin with PegIntron (peginterferon alfa-2b), clinical trials; cited from earlier work

patients with Hb concentrations <10 g/dL (severe anemia) [1]: 13%
Compound: NC(=O)c1ncn([C@@H]2O[C@H](CO)[C@@H](O)[C@H]2O)n1 [RBV, 1-[(2R,3R,4S,5R)-3,4-dihydroxy-5-(hydroxymethyl)oxolan-2-yl]-1H-1,2,4-triazole-3-carboxamide]

Compound: NC(=O)c1ncn([C@@H]2O[C@H](COP(=O)(O)OP(=O)(O)OP(=O)(O)O)[C@@H](O)[C@H]2O)n1 [RTP]
RTP concentration in erythrocytes relative to plasma (erythrocytes): 60 fold

Compound: N=C(N)c1ncn([C@@H]2O[C@H](CO)[C@@H](O)[C@H]2O)n1 [taribavirin, 1-(β-D-Ribofuranosyl)-1,2,4-triazole-3-carboximide]
anemia compared with patients treated with ribavirin and PegIntron [2]: less anemia
